Results: patent publication US7728105B2, “Peptides impairing PBX dependent gene regulation” (St. George's Hospital Medical School, priority 2002, dated 2010)

Experiments:
Type in all cases: cell-based, human
[1] = system: KG1a, KG1, HL60 and U937 cells; assay: Cell cycle analysis (propidium iodide, flow cytometry) of leukaemic cell lines (Example 1)
Experimental: (§1) Cells to be investigated were harvested and washed in PBS at 400 g for 10 min. Pelleted cells were then fixed in ice-cold 70% ethanol. Fixed cells were subsequently washed twice in PBS (600 g; 10 min) and incubated in 100 μl of ribonuclease (100 μg/ml; Sigma Aldrich) for 5 min (room temperature) prior to addition of 400 μl of propidium iodide (50 μg/ml; Sigma Aldrich) and 30 minutes incubation (37° C.). Cells were then analysed for cell cycle status on FACScan flow cytometer (Becton Dickinson, USA) and using WinMDI and Cylchred softwares.

[2] = system: PBX1, 2 and 3 association with HOX proteins; assay: Cross-linking and Western blot of PBX proteins in KG1a cells (Example 2); settings: 24 hours, 1 μM peptide, EDC cross-linking
Experimental: HXP and control peptides were as described in Example 1. KG1a cells were grown as described in Example 1. KG1a cells were cultured for 24 hours without treatment, or in the presence of 1 μM HXP peptide or control peptide. The cells were harvested and lysed. One aliquot of the cells was subject to cross-linking. Frozen cells were lysed using standard techniques and […] of lysate was incubated for 30 minutes at room temperature in 4 mM 1-ethyl-3-[3-(dimethyl-amino)propyl]carbodimide (EDC), 4 mM sulpho-NHS, 20 mM HEPES (pH 7.5), 5 mM MgCl2, and 0.03% (w/v) […] to cross-link non-covalently associated proteins. The reaction was stopped by the addition of ammonium acetate to a final concentration of 50 mM. The other aliquot was frozen without cross-linking.
Proteins were extracted from the cells of both aliquots by standard techniques and separated by gel electrophoresis. The gels were probed by Western blot with an antibody raised against PBX1, 2 and 3 (sc-888, Santa Cruz Inc. USA) or an anti-beta actin antibody (sc-1615, Santa Cruz Inc. USA).

[3] = system: KG1a, HL60 and U937 leukaemic cell lines; assay: Growth of leukaemic cell lines over 48 hours (Example 3); settings: 20 μg/ml
Experimental: KG1a, HL60 and U937 cell lines were seeded as described in Example 1.
All cell lines were grown with HXP peptide (20 μg/ml) or CXP (20 μg/ml). Cell lines were cultured for various time points at 37° C., 5% CO2 in humidified atmosphere and enumerated at various time points.

KG1a cells = assay: RT-PCR of stem/progenitor and maturation markers in KG1a cells; settings: 7 days of treatment
Experimental: (§2) Total RNA was extracted from cultured human cells using the Rneasy mini kit (Quiagen) and following the manufacturer's instructions. 3 μg of RNA was used in subsequent reverse transcription reactions. The RNA was mixed with a poly T15 oligo to 5 microgrammes/ml and heated to 75° C. for 5 minutes. After cooling on ice, the following additional reagents were added; dNTPs to 0.4 mM, RNase OUT (Promega) to 1.6 U/μl, Moloney Murine Leukemia Virus Reverse Transcriptase (M-MLRvT) RnaseH— point mutant (Promega) to 8 U/μl and the appropriate buffer (supplied by the manufacturer) to x1 concentration. The mixture was incubated for one hour at 37° C., heated to 70° C. for two minutes and cooled on ice.
(§3) PCR reactions were all performed in a total volume of 40 μl. For each we used 1 μl of the M-MLRvT reaction (as described above), 0.2 nmols of each primer and 20 microliters of Redimix pre-mixed PCR components (Sigma). All reactions were cycled at 94° C. for 30 seconds, 55° C. for 30 seconds and 72° C. for 60 seconds. 30 cycles were used for all primer sets except those for beta-actin, for which 23 cycles were used.

CD133+ cells [4] = assay: Cell cycle status of CD133+ cells (G0-G1)
Experimental: as §1
(§4) CD133+ cells (another name for AC133+ cells) were seeded in duplicate at 4×10^4 cells/ml in IMDM (Life Technologies), 10% FCS (Sigma Aldrich) and gentamycin (50 μg/ml Life Technologies) and Thrombopoietin (TPO) 10 ng/ml, Flt3-Ligand (FL) 50 ng/ml & c-KitL (K) 20 ng/ml), all obtained from R and D systems Ltd., UK. (Forraz et al., 2002). The HXP peptide (N-term: WYPWMKKHHRQIKIWFQNRRMKWKK: C-term; Eurogentec, Belgium) and control CXP peptide (N-term: WCCLADRHGRQIKIWFQNRRMKWKK: C-term; Eurogentec, Belgium) were added to culture medium at a concentration of 20 μg/ml. To withdraw peptides from culture, cells were washed twice in IMDM or RPMI and reseeded at prewash cell densities. Primary cells were cultured for 3 weeks at 37° C., 5% CO2 in humidified atmosphere and enumerated by a […] exclusion method with a heamocytometer.

[5] = system: KG1a, HL60 and U937 leukaemic cell lines; assay: RT-PCR of HOX/PBX target genes in leukaemic cell lines (Example 3)
Experimental: Total RNA was isolated from liquid nitrogen snap-frozen cells using RNeasy Mini Kit protocol (Qiagen, Crawley, UK). 50 μl reverse transcription reactions using 1 μg of RNA per reaction heated at 75° C. cDNA with 1 μg of oligo-dT for 10 mins. Samples were cooled on ice and mixed with 200 units of M-MLV reverse transcriptase (Promega, Southampton, UK) in its associated buffer, 400 μM of dNTPs (Promega), and 40 units of RNAseout (Invitrogen, Paisley, UK). Samples were then incubated at 37° C. for one hour and finally heated at 75° C. for 5 mins. PCR reactions (35 cycles, 94° C. 30 sec, 55° C. 30 sec, 72° C. 1 min) were carried out in a 20 μl reaction using JumpStart ReadyMix REDTaq DNA polymerase (Sigma-Aldrich) using an identical amount of cDNA per reaction with 1 μM of forward and reverse primers.

CD133+ cells [6] = assay: CD133+ cell proliferation in cytokine supplemented liquid culture over 18 days
Experimental: as §4

AC133+ cells = assay: RT-PCR of CD38 and HOX genes in AC133+ cells
Experimental: as §2, §3

In the case of “WYPWMKKHHRQIKIWFQNRRMKWKK [HXP peptide]”, the “effect on cell cycle of more mature leukaemic cells” value ([1]; HL60 and U937) is reported as “slowed”, the “effect on cell cycle of immature leukaemic cells” value ([1]; KG1 and KG1a) is reported as “may be propelled into the cell cycle” and the “association of PBX proteins with other proteins (HOX proteins)” value [2] is reported as “none of the PBX isoforms from the HXP peptide treated cells were associated with other proteins”. The “cell growth inhibition on leukaemic cell lines” value [3] was “potent cell growth inhibition”, the “time at which cell growth inhibition is apparent” value [3] was “two” and the “markers of maturation/differentiation (CD38)” value (KG1a cells) was “elevated”. For the same substance, the “markers of stem/progenitor cells (AC133, CD34, HOXB4, HOXB8 and HOXA9)” value (KG1a cells) was “diminished”, the “proportion of cells in phase G0-G1 upon withdrawing HXP peptide” value (CD133+ cells [4]; compared to the HXP peptide-treated group) was “lower proportion of cells remained in phase G0-G1” and the “more cells in phase G0-G1 of the cell cycle than the control group” value (CD133+ cells [4]; day 18 of culture, vs CXP4 treated cells, p<0.05) was 9.9%. For the same substance, the MMP19 expression ([5]; KG1a) was “down-regulated”, the MMP1 expression ([5]; KG1a and U937 cells) was “down-regulated” and the CD38 gene expression ([5]; KG1a cell line) was “up-regulation”. For the same substance, the “CD133, CD34, HOXB4, B8 and A9 gene expression” value ([5]; KG1a cell line) was “down-regulation”, the “expression of the other genes examined” value ([5]; KG1a, HL60, U937, except CDC25, MMP1, MMP19 as stated) was “did not alter” and the CD38 gene expression ([5]; U937 and HL60 cell lines) was “up-regulated”. For the same substance, the “HOXB4 and A9 gene expression” value ([5]; U937 and HL60 cell lines) was “down-regulation”, the HOXB8 gene expression ([5]; U937 and HL60 cell lines) was “unchanged” and the CDC25 expression ([5]; U937 cells) was “down-regulated”. The N-RAS oncogene expression ([5]; all of the cell lines (KG1a, HL60, U937)) was “completely down-regulated”, the “inhibition of CD133+ cell growth compared to CXP peptide-treated cells” value (CD133+ cells [6]; day 18, 20 μg/ml, average, p<0.001) was 3.7 fold and the “CD133+ cell proliferation after withdrawal of HXP peptide” value (CD133+ cells [6]; withdrawal at day 7, compared to 18 day-HXP peptide treated cells, p<0.01) was “resumption of cell proliferation”. The CD38 gene expression (AC133+ cells) was “up-regulation” and the “HOX B4, B8 and A9 gene expression” value (AC133+ cells; from as early as day 3) was “down-regulated”.
